{"source": "patent US4973675A", "about": "“Hybrid nitrosoureidoanthracyclines having antitumor activity” (University of Tennessee Research Center, priority 1989, dated 1990)", "key": {"[1]": {"test_system": "human CEM leukemic lymphocytes", "test": "Growth inhibition of human CEM leukemic lymphocyte suspension cultures, 48 h continuous drug exposure (ID50)", "assay_type": "cell-based", "details": "Homo sapiens, Lymphocyte; suspension culture, 48 hr continuous drug exposure (Table 3); read-out: CEM, ID50 (50% growth-inhibitory concentration)", "method": "(§1) Culture and bioassay conditions were as described in Cancer Chemotherapy Pharmacology 20:277 (1987) \"Comparative Effects of Adriamycin and DNA-nonbinding Analogues on DNA, RNA, and Protein Synthesis in Vitro\", Israel et al., except that cell counts were determined by hemocytometer rather than by automated cell counting."}, "[2]": {"test_system": "murine L1210 leukemia cells", "test": "Clonogenic assay with cultured murine L1210 leukemia cells, 1 h drug exposure (LD90)", "assay_type": "cell-based", "details": "Mus musculus, L1210; 1 hr drug exposure; read-out: L1210 LD90 (dose killing 90% of clonogens)", "method": "as §1\n+Dose killing 90% of clonogens, 1hr. drug exposure."}, "[3]": {"test_system": "plasmid PC15 supercoiled DNA", "test": "DNA unwinding assay (interference with DNA topoisomerase I-mediated unwinding; drug-DNA intercalation)", "assay_type": "biochemical", "details": "0 = no intercalation, 9 = very strong intercalation", "description": "DNA unwinding assays were used to measure the ability of a test drug to interfere with DNA topoisomerase I-mediated unwinding of plasmid PC15 supercoiled DNA. DNA topoisomerase I controls the topology of double-stranded DNA and is itself not inhibited by DNA intercalating agents. Rather, intercalating agents cause distortion of the torsional angle between adjacent DNA strand components and thereby interfere with the ability of topoisomerase I to convert supercoiled DNA into relaxed forms. Accordingly, this assay is taken as the definitive test of drug-DNA intercalation.\nDrugs were tested at 4 concentrations over a 125-fold concentration range. […] These compounds are 2-chloroethylurea derivatives of daunorubicin and adriamycin, respectively (i.e. not nitrosoureas, but chemical intermediates from which the nitrosoureas were derived)."}, "[4]": {"test_system": "murine P388/adriamycin-resistant leukemia", "details": "mouse, in vivo, ip", "source_text": "(§2) Assays were run essentially according to the established protocols of the U.S. National Cancer Institute (Geran et al., 1972 \"Protocols for Screening Chemical Agents and Natural Products Against Animal Tumors and Other Biological Systems\" (3rd Ed.), Cancer Chemotherapy Rep. [3]33, 1-103.), with the test agent given at 3-5 incremental dose levels in each screening experiment and with median survival of treated groups referenced against data for untreated controls.\n(§3) *B6D2F1 males; 1 × 10^6 tumor cell inoculum ip day 0; treatment"}, "murine P388 leukemia": {"test_system": "murine P388 leukemia", "details": "optimal dose 2.0 mg/kg, this protocol; cited from earlier work"}, "[5]": {"test_system": "murine P388/adriamycin-resistant leukemia", "details": "Johnson et al. (1976); cited from earlier work"}, "[6]": {"test_system": "murine P388/adriamycin-resistant leukemia", "test": "In vivo antitumor activity vs. murine P388/adriamycin-resistant leukemia (P388/ADR)", "source_text": "as §2, §3"}}, "note": "Like-named read-outs stand apart in the source and are kept apart here."}
{"smiles": "COc1cccc2c1C(=O)c1c(O)c3c(c(O)c1C2=O)C[C@@](O)(C(C)=O)C[C@@H]3O[C@H]1C[C@H](N)[C@H](O)[C@H](C)O1", "note": "[Daunorubicin, daunorubicin]", "values": [{"measurement": "IC50", "setting": "[1]", "result": 30, "unit": "nM"}, {"measurement": "IC90", "setting": "[2]", "result": 900, "unit": "nM"}, {"measurement": "relative strength of drug-DNA intercalation (arbitrary scale)", "setting": "[3]", "result": 7}, {"measurement": "Net mean percent weight change, day 7", "setting": "[4]; 2 mg/kg", "result": -0.5, "unit": "%"}, {"measurement": "Net mean percent weight change, day 7", "setting": "[4]; 3 mg/kg", "result": -7, "unit": "%"}, {"measurement": "Net mean percent weight change, day 7", "setting": "[4]; 4 mg/kg", "result": -7, "unit": "%"}, {"measurement": "Net mean percent weight change, day 7", "setting": "[4]; 12 mg/kg", "result": -13, "unit": "%"}, {"measurement": "Net mean percent weight change, day 7", "setting": "[4]; 15 mg/kg", "result": -13, "unit": "%"}, {"measurement": "Net mean percent weight change, day 7", "setting": "[4]; 18 mg/kg", "result": -28, "unit": "%"}, {"measurement": "ILS, historical results", "setting": "murine P388 leukemia", "result": "+75 - +100%"}, {"measurement": "longterm survivors, historical results", "setting": "murine P388 leukemia", "result": "no longterm survivors"}, {"measurement": "in vivo sensitivity of P388/ADR", "setting": "[5]", "result": "cross-resistant to daunorubicin"}, {"measurement": "toxicity flag", "setting": "[6]; 18.0 mg/kg, d1 only", "result": "Toxic"}, {"measurement": "increase in life span", "setting": "[6]; P388/ADR in vivo, lack of response confirmed", "result": 0, "unit": "%"}, {"measurement": "Long-term survivors", "setting": "[6]; ip, 1.0 mg/kg qd 1-4", "result": "0/6"}, {"measurement": "Median increase in lifespan", "setting": "[6]; ip, 1.0 mg/kg qd 1-4", "result": "+9%"}, {"measurement": "Median survival", "setting": "[6]; ip, 1.0 mg/kg qd 1-4", "result": 12, "unit": "days"}, {"measurement": "Net mean percent weight change, day 7", "setting": "[6]; ip, 1.0 mg/kg qd 1-4", "result": "+20%"}, {"measurement": "Range of death (dying animals)", "setting": "[6]; ip, 1.0 mg/kg qd 1-4", "result": "11 to 12", "unit": "days"}, {"measurement": "Long-term survivors", "setting": "[6]; ip, 2.0 mg/kg qd 1-4", "result": "0/7"}, {"measurement": "Median increase in lifespan", "setting": "[6]; ip, 2.0 mg/kg qd 1-4", "result": 0, "unit": "%"}, {"measurement": "Median survival", "setting": "[6]; ip, 2.0 mg/kg qd 1-4", "result": 11, "unit": "days"}, {"measurement": "Range of death (dying animals)", "setting": "[6]; ip, 2.0 mg/kg qd 1-4", "result": "11 to 12", "unit": "days"}, {"measurement": "Long-term survivors", "setting": "[6]; ip, 3.0 mg/kg qd 1-4", "result": "0/7"}, {"measurement": "Median increase in lifespan", "setting": "[6]; ip, 3.0 mg/kg qd 1-4", "result": 0, "unit": "%"}, {"measurement": "Median survival", "setting": "[6]; ip, 3.0 mg/kg qd 1-4", "result": 11, "unit": "days"}, {"measurement": "Range of death (dying animals)", "setting": "[6]; ip, 3.0 mg/kg qd 1-4", "result": "10 to 12", "unit": "days"}, {"measurement": "Long-term survivors", "setting": "[6]; ip, 4.0 mg/kg qd 1-4", "result": "0/7"}, {"measurement": "Median increase in lifespan", "setting": "[6]; ip, 4.0 mg/kg qd 1-4", "result": -9, "unit": "%"}, {"measurement": "Median survival", "setting": "[6]; ip, 4.0 mg/kg qd 1-4", "result": 10, "unit": "days"}, {"measurement": "Range of death (dying animals)", "setting": "[6]; ip, 4.0 mg/kg qd 1-4", "result": "9 to 12", "unit": "days"}, {"measurement": "Long-term survivors", "setting": "[6]; ip, 12.0 mg/kg d1 only", "result": "0/7"}, {"measurement": "Median increase in lifespan", "setting": "[6]; ip, 12.0 mg/kg d1 only", "result": 0, "unit": "%"}, {"measurement": "Median survival", "setting": "[6]; ip, 12.0 mg/kg d1 only", "result": 10, "unit": "days"}, {"measurement": "Range of death (dying animals)", "setting": "[6]; ip, 12.0 mg/kg d1 only", "result": "9 to 11", "unit": "days"}, {"measurement": "Long-term survivors", "setting": "[6]; ip, 15.0 mg/kg d1 only", "result": "0/7"}, {"measurement": "Median increase in lifespan", "setting": "[6]; ip, 15.0 mg/kg d1 only", "result": 0, "unit": "%"}, {"measurement": "Median survival", "setting": "[6]; ip, 15.0 mg/kg d1 only", "result": 10, "unit": "days"}, {"measurement": "Range of death (dying animals)", "setting": "[6]; ip, 15.0 mg/kg d1 only", "result": "8 to 11", "unit": "days"}, {"measurement": "Long-term survivors", "setting": "[6]; ip, 18.0 mg/kg d1 only", "result": "0/7"}, {"measurement": "Median survival", "setting": "[6]; ip, 18.0 mg/kg d1 only", "result": 8, "unit": "days"}, {"measurement": "Range of death (dying animals)", "setting": "[6]; ip, 18.0 mg/kg d1 only", "result": "6 to 9", "unit": "days"}, {"measurement": "Median increase in lifespan", "setting": "[6]; ip, 18.0 mg/kg d1 only, ** Toxic", "result": -20, "unit": "%"}]}
